From patent US20210038515A1 (Azurity Pharmaceuticals, Inc., priority 2014, published 2021)
Where a name gives a salt, the structure may show the parent alone.

Key:
[1] = Stability of vancomycin hydrochloride powder in bottle (HPLC or cylinder plate analysis); settings: for μg/mg vancomycin hydrochloride powder: Ex. 1, 10 g powder in HDPE bottle; for % Vancomycin B / % other impurities / % Monodechlorovancomycin: Ex. 1 powder in bottle; for Monodechlorovancomycin / Other Impurities / Vancomycin / Vancomycin B: Ex. 4, 15.38 g powder in bottle
Procedure: Stability may be assessed by cylinder-plate assay (the cylinder plate assay depends on the diffusion of the antibiotic from a vertical cylinder through a solidified agar layer in a petri dish or plate. The growth of the specific microorganisms inoculated into the agar is prevented in a circular area or zone around the cylinder containing the solution of the antibiotic), HPLC or any other known testing method.
The stability of vancomycin hydrochloride powder was evaluated. […] At various time points the powder in the bottle was analyzed for vancomycin hydrochloride, vancomycin B, other impurities, and monodechlorovancomycin by HPLC or cylinder plate analysis.
Vancomycin hydrochloride was further investigated in stability studies. […] At each given time point, vancomycin hydrochloride, vancomycin B, other impurities, and monodechlorovancomycin were assayed by HPLC or total microbiological activity was assessed by cylinder plate analysis.

[2] = 289 mL solution component + 15.38 g powder, shaken 30 seconds
[3] = Ex. 4, 3 months accelerated and ambient

CN[C@H](CC(C)C)C(=O)N[C@H]1C(=O)N[C@@H](CC(N)=O)C(=O)N[C@H]2C(=O)NC3C(=O)N[C@H](C(=O)N[C@H](C(=O)O)c4cc(O)cc(O)c4-c4cc3ccc4O)[C@H](O)c3ccc(c(Cl)c3)Oc3cc2cc(c3OC2OC(CO)C(O)C(O)C2OC2CC(C)(N)C(O)C(C)O2)Oc2ccc(cc2Cl)[C@H]1O (some centres unmarked) [vancomycin hydrochloride powder, vancomycin hydrochloride]
μg/mg vancomycin hydrochloride powder ([1]; 40° C./75% RH, 0 months): 1067 µg/mg | μg/mg vancomycin hydrochloride powder ([1]; 40° C./75% RH, 1 month): 1076 µg/mg | μg/mg vancomycin hydrochloride powder ([1]; 40° C./75% RH, 2 months): 1097 µg/mg | μg/mg vancomycin hydrochloride powder ([1]; 40° C./75% RH, 3 months): 1094 µg/mg | μg/mg vancomycin hydrochloride powder ([1]; 40° C./75% RH, 6 months): 1137 µg/mg | powder in bottle stability ([1]; Ex. 1, ambient and accelerated conditions (25° C./60% RH and 40°/75% RH)): stable | % Vancomycin B ([1]; 25° C./60% (RH), 0 months): 93.03% | % other impurities ([1]; 25° C./60% (RH), 0 months): <5.0% for all other | % Vancomycin B ([1]; 25° C./60% (RH), 3 months): 92.19% | % other impurities ([1]; 25° C./60% (RH), 3 months): <5.0% for all other | % Vancomycin B ([1]; 25° C./60% (RH), 6 months): 92.04% | % other impurities ([1]; 25° C./60% (RH), 6 months): <5.0% for all other | % Vancomycin B ([1]; 25° C./60% (RH), 9 months): 89.34% | % other impurities ([1]; 25° C./60% (RH), 9 months): <5.0% for all other | % Vancomycin B ([1]; 25° C./60% (RH), 12 months): 88.85% | % other impurities ([1]; 25° C./60% (RH), 12 months): <5.0% for all other | % Vancomycin B ([1]; 25° C./60% (RH), 18 months): 90.8% | % other impurities ([1]; 25° C./60% (RH), 18 months): <5.0% for all other | % Vancomycin B ([1]; 40° C./75% RH, 0 months): 93.03% | % other impurities ([1]; 40° C./75% RH, 0 months): <5.0% for all other | % Monodechlorovancomycin ([1]; 40° C./75% RH, 1 month): 1.0% | % Vancomycin B ([1]; 40° C./75% RH, 1 month): 91.87% | % other impurities ([1]; 40° C./75% RH, 1 month): <5.0% for all other | % Monodechlorovancomycin ([1]; 40° C./75% RH, 2 months): 1.3% | % Vancomycin B ([1]; 40° C./75% RH, 2 months): 89.14% | % other impurities ([1]; 40° C./75% RH, 2 months): <5.0% for all other | % Monodechlorovancomycin ([1]; 40° C./75% RH, 3 months): 1.6% | % Vancomycin B ([1]; 40° C./75% RH, 3 months): 88.22% | % other impurities ([1]; 40° C./75% RH, 3 months): <5.0% for all other | % Vancomycin B ([1]; 40° C./75% RH, 6 months): 81.84% | % other impurities ([1]; 40° C./75% RH, 6 months): <5.0% for all other | Monodechlorovancomycin ([1]; 25° C./60% RH, 0 months): 1.5% | Other Impurities ([1]; 25° C./60% RH, 0 months): <5.0% for | Vancomycin ([1]; 25° C./60% RH, 0 months): 1,112 mcg/mg | Vancomycin B ([1]; 25° C./60% RH, 0 months): 94.7% | Monodechlorovancomycin ([1]; 25° C./60% RH, 3 months): 1.1% | Other Impurities ([1]; 25° C./60% RH, 3 months): <5.0% for | Vancomycin ([1]; 25° C./60% RH, 3 months): 1,070 mcg/mg | Vancomycin B ([1]; 25° C./60% RH, 3 months): 91.8% | Monodechlorovancomycin ([1]; 40° C./60% RH, 0 months): 1.5% | Other Impurities ([1]; 40° C./60% RH, 0 months): <5.0% for all | Vancomycin ([1]; 40° C./60% RH, 0 months): 1,112 mcg/mg | Vancomycin B ([1]; 40° C./60% RH, 0 months): 94.7% | Monodechlorovancomycin ([1]; 40° C./60% RH, 1 month): 1.4% | Other Impurities ([1]; 40° C./60% RH, 1 month): <5.0% for all | Vancomycin ([1]; 40° C./60% RH, 1 month): 1,095 mcg/mg | Vancomycin B ([1]; 40° C./60% RH, 1 month): 91.3% | Monodechlorovancomycin ([1]; 40° C./60% RH, 2 months): 1.1% | Other Impurities ([1]; 40° C./60% RH, 2 months): <5.0% for all | Vancomycin ([1]; 40° C./60% RH, 2 months): 1,108 mcg/mg | Vancomycin B ([1]; 40° C./60% RH, 2 months): 90.8% | Monodechlorovancomycin ([1]; 40° C./60% RH, 3 months): 1.0% | Other Impurities ([1]; 40° C./60% RH, 3 months): <5.0% for all | Vancomycin ([1]; 40° C./60% RH, 3 months): 1,095 mcg/mg | Vancomycin B ([1]; 40° C./60% RH, 3 months): 87.6% | Monodechlorovancomycin, not exceeded [1, 3]: ≤ 4.7% | other impurities, not exceeded [1, 3]: ≤ 5.0% | powder stability ([1]; Ex. 4, accelerated and ambient (25±2° C./60±5% RH) conditions): remained stable through 3 months under accelerated stability conditions and 3 months under ambient | dissolution of powder in the solution component [2]: easily dissolves in the solution component
